These results are taken from patent publication US10426773B2, “Systems pharmacology for treating ocular disorders” (Case Western Reserve Univeristy, priority 2011, dated 2019).

In one assay the test system is Abca4−/−Rdh8−/− mice. As to the kind of experiment: Bright light-induced retinal degeneration in Abca4−/−Rdh8−/− mice, OCT imaging of retinal structure. The class given is in vivo, mouse. The conditions noted are these: for Percent of mice with: subeffective doses BRM 0.1, MTP 1, TAM 0.05, DOX 1 mg/kg bw, OCT 7 days; for retinal / photoreceptor morphology by OCT imaging: pretreatment before light 10,000 lux 30 min, OCT 7 days after light exposure; for retinal protection at full individual dose: BRM 1, MTP 10, TAM 2.5 mg/kg bw individually; for light-exposed mice with complete retinal protection: lower doses BRM 0.1, MTP 1, TAM 0.05 mg/kg bw, alone or all three combined.

In assay [1] the target is T1, Dopamine D4 receptor (D4R) (Homo sapiens, UniProt P21917).
T1 construct: host or cells: HEK293T/17
T1 sequence (P21917 1-419): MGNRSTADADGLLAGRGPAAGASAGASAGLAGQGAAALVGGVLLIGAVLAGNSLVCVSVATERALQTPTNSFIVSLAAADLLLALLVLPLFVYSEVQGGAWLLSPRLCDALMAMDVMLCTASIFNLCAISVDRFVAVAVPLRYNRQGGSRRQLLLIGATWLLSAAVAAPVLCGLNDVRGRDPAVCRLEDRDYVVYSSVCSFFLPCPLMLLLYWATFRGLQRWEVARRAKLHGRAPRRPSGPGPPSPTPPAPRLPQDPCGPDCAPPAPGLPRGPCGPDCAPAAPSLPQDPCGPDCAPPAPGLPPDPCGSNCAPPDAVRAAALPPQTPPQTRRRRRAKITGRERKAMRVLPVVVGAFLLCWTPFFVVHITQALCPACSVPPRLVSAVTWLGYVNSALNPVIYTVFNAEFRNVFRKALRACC
In words: BRET assay for G protein activation in live cells, D4R-Go. The class given is cell-based. The conditions noted are these: for agonistic activity on D4R (BRET signal): HEK293T/17 cells, BRM 25 μM, MTP 100 μM, DOX 50 μM, TAM 100 μM. The text has this:
(§1) FIGS. 35(A-C) illustrate characterizing the activity of BRM, MTP, DOX, and TAM on dopamine and adrenaline receptors (A) Schematic representation of the BRET assay used to evaluate actions of drugs on selected GPCRs. […] The free Venus-Gβγ then interacts with the Gβγ-effector mimetic masGRK3ct-Nluc to produce the BRET signal. GDP, guanosine diphosphate; GRK, G protein-coupled receptor kinase; Nluc, nanoluciferase. (B) Left: Representative BRET signal traces recorded upon activation of D4R with indicated drugs in cells expressing Gαo and Venus-Gβγ, illustrating the agonism assay. Right: Representative traces of D2R responses to 1 μM dopamine in the absence (control) or presence of indicated drugs, illustrating antagonism assay. Note that, in the antagonism assay shown, the black trace overlaps with the red trace and therefore is not visible. (C) Top: Quantification of agonistic activity of ligands on D2R, D4R, D1R, and ADRA1A. D2R-GO, D4R-GO, D1R-Gs, and ADRA1A-Gq signaling were reconstituted in HEK293T/17 cells by transient transfection separately. Maximum amplitudes induced by dopamine (DA; 100 μM), noradrenaline (NA; 100 μM), BRM (25 μM), MTP (100 μM), DOX (50 μM), and TAM (100 μM) were plotted as bar graphs. […] The activity is plotted as percent inhibition. Data are means±SD. Results are representative of two independent experiments each performed with 12 replicates.
(§2) Dopamine D1, dopamine D4, and α1A-adrenergic receptors were purchased from cDNA Resource Center (Bloomsburg University, Bloomsburg, Pa.). Plasmid encoding the Flag-tagged, long isoform of the D2 dopamine receptor was a gift from A. Kovoor (University of Rhode Island). pCMV5 plasmids encoding GαoA were gifts from H. Itoh (Nara Institute of Science and Technology, Japan). Plasmids encoding Venus 156-239-Gβ1 and Venus 1-155-Gγ2 were gifts from N. Lambert (Georgia Regents University). Plasmids encoding RGS9-2, Gβ5S, R7BP, and masGRK3ct-Nluc were previously described.
(§3) BRET experiments were performed as previously reported with slight modifications. […] BRET measurements were performed using a microplate reader (POLARstar Omega, BMG Labtech) equipped with two emission photomultiplier tubes. […] The BRET signal is determined by calculating the ratio of the light emitted by Gβ1γ2-Venus (535 nm) over the light emitted by masGRK3ct-Nluc (475 nm). The average baseline value recorded before agonist stimulation was subtracted from BRET signal values, and the resulting difference (ABRET ratio) was obtained.
(§4) We used a real-time kinetic assay in which G protein activation by GPCRs is quantified by monitoring changes in the bioluminescence resonance energy transfer (BRET) signal between Venus-tagged Gβγ and its luciferase-tagged reporter in living cells (FIG. 35A). […]

For assay [2], the target named is T2, Dopamine D1 receptor (D1R) (Homo sapiens, UniProt P21728).
T2 construct: host or cells: HEK293T/17
In words: BRET assay for G protein activation in live cells, D1R-Gs. In kind it is cell-based. To be noted: for antagonistic activity on D1R (inhibition of BRET signal): preincubation with ligand, then 1 μM dopamine.
Excerpt: as §1, §2, §3, §4

The test system of assay [3] is retinal transcriptome of Abca4−/−Rdh8−/− mice. As to the kind of experiment: RNA-seq retinal transcriptome of pretreated, light-exposed Abca4−/−Rdh8−/− mice (differential expression, Pearson, GSEA). The class given is in vivo, mouse. To be noted: for NES, CHEMOKINE SIGNALING gene set / NES, CYTOKINE- RECEPTOR INTERACTIO gene set / NES, P53 gene set / NES, TOLL-LIKE SIGNALING gene set / NES, APOPTOSIS gene set: GSEA, vehicle-treated light-exposed retinas against drug-treated; for NES, APOPTOSIS gene set: P in brackets not reported here; for number of light-up-regulated gene sets significantly down-regulated (GSEA): of 44 gene sets up-regulated by light, mono doses BRM 1, MTP 10, TAM 2.5, DOX 10 mg/kg bw.

Setting [4] is: Table 14 (complete protection, ONL ≥50 μm).
Setting [5] is: Table 14 (no protection, ONL ≤20 μm).

Structures are written as SMILES. “Also recorded” adds a separate entry of the source. Where a name gives a salt, the structure may show the parent alone.

T2 sequence (P21728 whole entry): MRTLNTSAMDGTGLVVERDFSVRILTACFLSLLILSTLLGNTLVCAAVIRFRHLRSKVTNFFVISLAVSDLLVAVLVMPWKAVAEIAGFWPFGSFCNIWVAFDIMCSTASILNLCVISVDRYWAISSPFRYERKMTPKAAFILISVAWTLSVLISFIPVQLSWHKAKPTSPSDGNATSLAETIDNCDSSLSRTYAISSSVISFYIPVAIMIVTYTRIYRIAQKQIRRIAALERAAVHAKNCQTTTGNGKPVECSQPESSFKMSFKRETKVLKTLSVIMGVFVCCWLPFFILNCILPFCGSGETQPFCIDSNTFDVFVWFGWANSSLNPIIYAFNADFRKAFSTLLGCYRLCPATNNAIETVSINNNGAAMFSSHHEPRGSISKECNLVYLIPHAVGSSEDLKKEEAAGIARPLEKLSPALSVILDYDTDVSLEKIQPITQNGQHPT

With `COc1cc2nc(N3CCN(C(=O)C4COc5ccccc5O4)CC3)nc(N)c2cc1OC.CS(=O)(=O)O` (centres unmarked) [Doxazosin], in the assay with Abca4−/−Rdh8−/− mice (setting [4]), the “Percent of mice with” value is recorded as 0% of mice. Besides, the “Percent of mice with” value in the assay with Abca4−/−Rdh8−/− mice (setting [5]) is 100% of mice. Also, the “retinal / photoreceptor morphology by OCT imaging” value (“retinal / photoreceptor morphology” below) in the assay with Abca4−/−Rdh8−/− mice (listed as DOX) is “substantial protection on photoreceptor morphology; also recorded: dose-dependent fashion”. In addition, in the assay with Abca4−/−Rdh8−/− mice (protection from bright light-induced degeneration, dose-response, FIG. 25A/B), the “half maximal effective (protective) dose” value is recorded as 0.4 mg/kg. In assay [1], the “agonistic activity on D4R (BRET signal)” value is “partial agonistic effect”. In assay [2], the “antagonistic activity on D1R (inhibition of BRET signal)” value was “partial antagonistic effect”. In addition, in assay [3], the “NES, CHEMOKINE SIGNALING gene set” value is 1.41; the “NES, CYTOKINE- RECEPTOR INTERACTIO gene set” value was 2.42; the “NES, P53 gene set” value amounted to 2.18; the “NES, TOLL-LIKE SIGNALING gene set” value was 1.99. In assay [3], the “NES, APOPTOSIS gene set” value came to 1.75 and the “number of light-up-regulated gene sets significantly down-regulated (GSEA)” value is recorded as 28 gene sets.
In the case of `COCCc1ccc(OCC(O)CNC(C)C)cc1` (centres unmarked) [MTP, metoprolol tartrate], in the assay with Abca4−/−Rdh8−/− mice, the “retinal protection at full individual dose” value is “Complete retinal protection”, the “light-exposed mice with complete retinal protection” value was 25% and the “retinal / photoreceptor morphology” value was “dose-dependent retinal protection”. Besides, the “Percent of mice with” value in the assay on Abca4−/−Rdh8−/− mice (setting [4]) was 25% of mice. In addition, in the assay on Abca4−/−Rdh8−/− mice (setting [5]), the “Percent of mice with” value is 41.7% of mice. Also, in assay [1], the “agonistic activity on D4R (BRET signal)” value is on record as “no agonistic or antagonistic effects”. In addition, the “antagonistic activity on D4R (inhibition of BRET signal)” value in assay [1] (preincubation with ligand, then 1 μM dopamine) was “no agonistic or antagonistic effects”. Moreover, in assay [2] (HEK293T/17 cells, BRM 25 μM, MTP 100 μM, DOX 50 μM, TAM 100 μM), the “agonistic activity on D1R (BRET signal)” value is “no agonistic or antagonistic effects”. Further, in assay [2], the “antagonistic activity on D1R (inhibition of BRET signal)” value was “no agonistic or antagonistic effects”. Further, in assay [3], the “NES, CHEMOKINE SIGNALING gene set” value is reported as 1.44; the “NES, CYTOKINE- RECEPTOR INTERACTIO gene set” value stood at 2.30; the “NES, P53 gene set” value came to 2.04; the “NES, TOLL-LIKE SIGNALING gene set” value stood at 2.05. Besides, in assay [3], the “NES, APOPTOSIS gene set” value is given as 1.61 and the “number of light-up-regulated gene sets significantly down-regulated (GSEA)” value amounted to 36 gene sets. Moreover, the “preservation of retinal gene expression pattern (in words)” value in assay [3] (retinas 1 day after light exposure) was “conferred the most protection”.
Turning to `CCOc1ccccc1OCCN[C@H](C)Cc1ccc(OC)c(S(N)(=O)=O)c1.Cl` [Tamsulosin], in the assay on Abca4−/−Rdh8−/− mice, the “retinal protection at full individual dose” value is listed as “Complete retinal protection” and the “light-exposed mice with complete retinal protection” value is reported as 17%. The “Percent of mice with” value in the assay on Abca4−/−Rdh8−/− mice (setting [4]) is 16.7% of mice. In addition, the “Percent of mice with” value in the assay on Abca4−/−Rdh8−/− mice (setting [5]) is reported as 58.3% of mice. Besides, in the assay on Abca4−/−Rdh8−/− mice (listed as TAM), the “retinal / photoreceptor morphology” value is recorded as “substantial protection on photoreceptor morphology; also recorded: dose-dependent retinal protection”. For the same molecule, the “agonistic activity on D4R (BRET signal)” value in assay [1] is given as “partial agonistic effect”. For the same molecule, the “antagonistic activity on D1R (inhibition of BRET signal)” value in assay [2] is recorded as “partial antagonist”. Further, in assay [3], the “NES, CHEMOKINE SIGNALING gene set” value was determined as 1.39; the “NES, CYTOKINE- RECEPTOR INTERACTIO gene set” value was 2.29; the “NES, P53 gene set” value was found to be 1.98; the “NES, TOLL-LIKE SIGNALING gene set” value was 1.83. Besides, in assay [3], the “NES, APOPTOSIS gene set” value stood at 1.60 and the “number of light-up-regulated gene sets significantly down-regulated (GSEA)” value amounted to 32 gene sets.
